From patent US20030114445A1, “N3-substituted 6-anilinopyrimidines and methods to treat-Gram-positive bacterial and mycoplasmal infections” (priority 2001, published 2003)
≈ marks a conversion by molar mass, not a printed value. Where two headings read alike, the source gives them in different places.

How the values were obtained:
[1] = test system: E. fecium; experiment: Inhibition of bacterial growth on agar plates (MIC); type: cell-based; details: 37° C., 24 hours
Protocol: (§1) Each compound is assayed against a panel of Bacillus, Enterococcus and Staphylococcus, and a Gram-negative bacterium Escherichia coli as negative control, grown in appropriate plate media solidified with 1.3% agar-agar. Stock solutions of the compounds in dimethylsulfoxide or water, depending on solubility, are added to sterile medium at a temperature of 60° C. […] One tenth mL of diluted bacteria containing 500-1000 colony-forming units (CFU) are plated and spread, and the plates incubated at 37° C. for 24 hours. MIC (minimum inhibitory concentration) is equivalent to the lowest concentration at which growth, i.e. colony formation, is not observed.

[2] = test system: B. subtilis; experiment: as above; type: cell-based; details: Bacillus subtilis, 37° C., 24 hours
Protocol: as §1

[3] = test system: E. fecalis; experiment: as above; type: cell-based; details: 37° C., 24 hours
Protocol: as §1

[4] = test system: S.aureus (Smith); experiment: as above; type: cell-based; details: Staphylococcus aureus, 37° C., 24 hours
Protocol: as §1

[5] = target: B.subtilis pol IIIC (Bacillus subtilis, UniProt P13267); experiment: biochemical
B.subtilis pol IIIC, sequence (P13267 whole entry): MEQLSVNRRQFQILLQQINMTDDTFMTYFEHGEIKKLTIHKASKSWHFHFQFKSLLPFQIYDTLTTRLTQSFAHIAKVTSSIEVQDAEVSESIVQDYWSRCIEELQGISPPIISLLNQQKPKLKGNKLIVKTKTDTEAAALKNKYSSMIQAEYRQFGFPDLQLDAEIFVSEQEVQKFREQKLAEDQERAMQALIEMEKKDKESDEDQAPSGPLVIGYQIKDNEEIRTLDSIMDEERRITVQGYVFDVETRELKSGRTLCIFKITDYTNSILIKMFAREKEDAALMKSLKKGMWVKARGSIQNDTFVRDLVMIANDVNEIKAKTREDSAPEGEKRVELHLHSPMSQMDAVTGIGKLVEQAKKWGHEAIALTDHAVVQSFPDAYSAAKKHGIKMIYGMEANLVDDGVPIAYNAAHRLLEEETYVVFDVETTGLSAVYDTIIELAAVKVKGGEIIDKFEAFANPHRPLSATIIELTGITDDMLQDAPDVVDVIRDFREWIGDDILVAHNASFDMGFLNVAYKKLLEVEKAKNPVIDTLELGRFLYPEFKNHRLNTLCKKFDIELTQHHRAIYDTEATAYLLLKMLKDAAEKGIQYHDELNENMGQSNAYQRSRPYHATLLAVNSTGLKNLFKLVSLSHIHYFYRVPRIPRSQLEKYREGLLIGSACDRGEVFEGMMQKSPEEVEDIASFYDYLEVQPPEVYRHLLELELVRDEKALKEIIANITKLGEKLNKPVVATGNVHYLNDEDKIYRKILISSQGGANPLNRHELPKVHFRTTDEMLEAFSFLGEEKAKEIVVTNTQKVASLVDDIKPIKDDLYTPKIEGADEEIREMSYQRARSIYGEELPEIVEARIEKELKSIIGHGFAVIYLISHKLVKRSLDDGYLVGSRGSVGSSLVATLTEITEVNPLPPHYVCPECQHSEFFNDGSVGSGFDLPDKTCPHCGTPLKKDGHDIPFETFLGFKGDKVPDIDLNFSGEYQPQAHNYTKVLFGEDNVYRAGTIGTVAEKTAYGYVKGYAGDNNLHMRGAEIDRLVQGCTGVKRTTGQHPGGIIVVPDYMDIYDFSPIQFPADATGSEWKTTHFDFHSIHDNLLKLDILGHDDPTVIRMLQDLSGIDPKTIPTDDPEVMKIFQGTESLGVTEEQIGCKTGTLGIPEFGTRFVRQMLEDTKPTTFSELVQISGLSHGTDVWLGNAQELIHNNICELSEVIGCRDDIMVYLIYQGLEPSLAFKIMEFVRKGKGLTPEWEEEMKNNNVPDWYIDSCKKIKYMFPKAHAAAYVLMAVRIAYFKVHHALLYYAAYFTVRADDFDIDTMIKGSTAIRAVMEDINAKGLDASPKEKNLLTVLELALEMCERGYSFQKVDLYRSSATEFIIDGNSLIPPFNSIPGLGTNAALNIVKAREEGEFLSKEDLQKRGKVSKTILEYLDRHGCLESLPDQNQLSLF
Protocol: DNA pol activity was assayed as described in Barnes et al., Nuc. Acids Res., 6:1203-19 (1979), using activated “nicked” calf-thymus DNA as template primer, 10 pM [^3H-methyl]-dTTP as the labelled dNTP substrate, and dATP, dCTP, and dGTP at 25 μM each.
Inhibitory activity of the compounds is determined by measuring the ability of the agent to inhibit enzyme-catalyzed incorporation of [^3H]-dTMP into nicked calf thymus DNA in the absence of the competitor dGTP or dATP (“truncated assay”) (see G. E. Wright and N. C. Brown, Inhibition of Bacillus subtilis DNA Polymerase III by Arylhydrazinopyrimidines: Novel Properties of 2-Thiouracil Derivatives, Biochim. Biophys. Acta 432:37-48 (1976)). Purified pol IIIC is added to a buffered solution containing Mg^2+, DTT, glycerol, nicked calf thymus DNA, saturating concentrations of dATP, dCTP, dTTP and [^3H]-dTTP. Reaction mixtures are incubated at 30° C. for 10 minutes, quenched and filtered, and radioactivity in the acid-insoluble material measured by scintillation counting. Experiments are done in triplicate. Inhibitors are assayed by addition of several dilutions of a stock solution of inhibitor (DMSO or water, depending on solubility) before enzyme addition. […] The truncated assay, i.e. exclusion of the competitive substrate dGTP or dATP, depending upon whether the compound is a uracil derivative or an isocytosine derivative, respectively, allows for the direct determination of apparent inhibitor constants (K,) in this assay system.

Row | Structure (SMILES) | MIC [1] [µg/mL] | MIC [2] [µg/mL] | MIC [3] [µg/mL] | MIC [4] [µg/mL] | Ki ([5]; truncated assay, apparent inhibitor constant, read-out: K1 B.subtilis pol IIIC) [nM] | Ki [5] [nM]
1 | CCc1cc(Nc2cc(=O)n(CCCCN3CCC(O)(c4ccc(Cl)c(C(F)(F)F)c4)CC3)c(=O)[nH]2)ccc1C [Compound 37, 3{[4-(3-Trifluoromethylphenyl-4-chloro-)-4-hydroxypiperidino]butyl}-6-(3-ethyl-4-methylanilino)uracil] | 2.5 (≈ 4.32 µM) | 1.25 (≈ 2.16 µM) | 2.5 (≈ 4.32 µM) | 2.5 (≈ 4.32 µM) | 32 | 
2 | CCc1cc(Nc2cc(=O)n(CCNS(C)(=O)=O)c(=O)[nH]2)ccc1C [Compound 16, 3-[2-(Methanesulfonylamino)ethyl]-6-(3-ethyl-4-methylanilino)uracil] | 10 (≈ 27.3 µM) | 5 (≈ 13.6 µM) | 20 (≈ 54.6 µM) | 10 (≈ 27.3 µM) |  | 290
3 | CCc1cc(Nc2cc(=O)n(CC#CCO)c(=O)[nH]2)ccc1C [Compound 13, 3-(4-Hydoxy-2-butynyl)-6-(3-ethyl-4-methylanilino)uracil] | 10 (≈ 31.9 µM) | 5 (≈ 16 µM) | 10 (≈ 31.9 µM) | 5 (≈ 16 µM) |  | 68
4 | CCc1cc(Nc2cc(=O)n(CCN3CCN(C(=O)c4ccccc4)CC3)c(=O)[nH]2)ccc1C [Compound 39, 3-[2-(4-Benzoylpiperazino)ethyl]-6-(3-ethyl-4-methylanilino)uracil] | 5 (≈ 10.8 µM) | 2.5 (≈ 5.42 µM) | 10 (≈ 21.7 µM) | 10 (≈ 21.7 µM) |  | 77
5 | CCc1cc(Nc2cc(=O)n(CCCCN3CC=C(c4ccc(C)c(C)c4)CC3)c(=O)[nH]2)ccc1C [Compound 81] | 10 (≈ 20.5 µM) | 1.25 (≈ 2.57 µM) | 10 (≈ 20.5 µM) | 20 (≈ 41.1 µM) |  | 34
6 | CCOC(=O)CCCCn1c(=O)cc(Nc2ccc(C)c(CC)c2)[nH]c1=O [Compound 6, 3-(4-Ethoxycarbonylbutyl)-6-(3-ethyl-4-methylanilino)uracil] | < 1.25 | < 1.25 | 5 (≈ 13.4 µM) | 2.5 (≈ 6.69 µM) |  | 76
7 | CCc1cc(Nc2cc(=O)n(CCCCNCCCCn3cc(C(=O)O)c(=O)c4cc(F)c(Cl)cc43)c(=O)[nH]2)ccc1C [Compound 74, 3-{4-[4-(3-carboxy-4-oxo-6-fluoro-7-chloroquinoline-1-yl)butylamino]butyl}-6-(3-ethyl-4-methylanilino)uracil] | 20 (≈ 32.7 µM) | 20 (≈ 32.7 µM) | 20 (≈ 32.7 µM) | 20 (≈ 32.7 µM) |  | 63
8 | CCc1cc(Nc2cc(=O)n(CCCCOC(=O)N3CCOCC3)c(=O)[nH]2)ccc1C [Compound 47, 3-[4-(N-morpholinocarbonyloxy)butyl]-6-(3-ethyl-4-methylanilino)uracil] | 5 (≈ 11.6 µM) | < 1.25 | 5 (≈ 11.6 µM) | 5 (≈ 11.6 µM) |  | 71
9 | CCc1cc(Nc2cc(=O)n(CCCCCN3CC=C(c4ccc(F)cc4)CC3)c(=O)[nH]2)ccc1C [Compound 75] | 5 (≈ 10.2 µM) | 5 (≈ 10.2 µM) | 5 (≈ 10.2 µM) | 5 (≈ 10.2 µM) |  | 98
10 | CCc1cc(Nc2cc(=O)n(CC(C)=O)c(=O)[nH]2)ccc1C [Compound 15, 3-(2-Oxopropyl)-6-(3-ethyl-4-methylanilino)uracil] | 10 (≈ 33.2 µM) | 2.5 (≈ 8.3 µM) | 20 (≈ 66.4 µM) | 10 (≈ 33.2 µM) |  | 303
11 | CCc1cc(Nc2cc(=O)n(CCCCCn3cnc4c(=O)n(C)c(=O)n(C)c43)c(=O)[nH]2)ccc1C [Compound 67, 3-{5-[9-(1,3-dimethyl-2,6-dioxopurinyl)]pentyl}-6-(3-ethyl-4-methylanilino)uracil] | 10 (≈ 20.3 µM) | 2.5 (≈ 5.07 µM) | 20 (≈ 40.5 µM) | 10 (≈ 20.3 µM) |  | 60
12 | CCc1cc(Nc2cc(=O)n(CCOCCOCCO)c(=O)[nH]2)ccc1C [Compound 21, 3-{2-[2-Hydroxyethoxy-(2-ethoxy)]ethyl}-6-(3-ethyl-4-methylanilino)uracil] | 10 (≈ 26.5 µM) | 2.5 (≈ 6.62 µM) | 10 (≈ 26.5 µM) | 10 (≈ 26.5 µM) |  | 87
13 | CCc1cc(Nc2cc(=O)n(CCCC(O)CO)c(=O)[nH]2)ccc1C (centres unmarked) [Compound 23, 3-(4,5-Dihydroxypentyl)-6-(3-ethyl-4-methylanilino)uracil] | 20 (≈ 57.6 µM) | 10 (≈ 28.8 µM) | 20 (≈ 57.6 µM) | 20 (≈ 57.6 µM) |  | 96
